For 27 compounds, IC50 and EC50 results are on record in patent US7932262B2 (Novartis AG, priority 2006, dated 2011).

One experiment addresses T1, PDK1 kinase (Homo sapiens, UniProt O15530).
T1 sequence (O15530 1-556): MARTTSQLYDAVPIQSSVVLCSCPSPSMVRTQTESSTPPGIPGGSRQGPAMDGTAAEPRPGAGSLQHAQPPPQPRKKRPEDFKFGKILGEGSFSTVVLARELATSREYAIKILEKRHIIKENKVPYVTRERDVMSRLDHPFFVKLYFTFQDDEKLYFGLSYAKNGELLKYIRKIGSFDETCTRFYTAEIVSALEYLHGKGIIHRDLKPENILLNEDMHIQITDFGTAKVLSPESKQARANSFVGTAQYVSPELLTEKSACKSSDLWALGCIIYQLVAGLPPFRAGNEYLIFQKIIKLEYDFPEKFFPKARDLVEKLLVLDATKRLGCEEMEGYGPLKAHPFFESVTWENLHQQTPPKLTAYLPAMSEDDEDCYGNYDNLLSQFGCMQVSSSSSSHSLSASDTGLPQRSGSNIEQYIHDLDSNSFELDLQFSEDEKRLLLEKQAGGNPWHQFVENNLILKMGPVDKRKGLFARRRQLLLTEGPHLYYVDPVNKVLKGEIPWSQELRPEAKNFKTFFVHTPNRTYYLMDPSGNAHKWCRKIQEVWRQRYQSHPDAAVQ
Nature of the experiment: PDK1 Kinase Alpha Screen Assay. In kind it is biochemical. The note with it: read-out: PDK1 IC50. In short, it runs like this: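 Test compounds were incubated with PDK1 kinase, 10 uM ATP and 50 nM biotinylated peptide substrate for 3-18 hours at pH 7.5 with 2.5% DMSO. Peptide phosphorylation was then detected by AlphaScreen proximity luminescence using a phospho-(Ser/Thr) PKA substrate antibody.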

A further experiment deals with PC-3 cells. The experiment in a line: Cell Proliferation Assay (Cell Titer Glo), PC-3 cell line. In kind it is cell-based. The note with it: read-out: CPEC50 PC3. In short, it runs like this: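 PC-3 cells, 1000 cells/well, left to adhere 3-5 h, then exposed for 3 days at 37° C to compounds as 1:3 serial dilutions from 500× DMSO stocks diluted in growth medium. Medium then replaced with fresh medium and viability read by Cell Titer Glo luminescence.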

Where two headings read alike, the source gives them in different places.

On to `CCN1CCC[C@@H]1CNc1ccc(-c2cccc3cnc(Nc4ccc(S(N)(=O)=O)cc4)nc23)cn1` [Compound 974, (R)-4-(8-(6-((1-ethylpyrrolidin-2-yl)methylamino)pyridin-3-yl)quinazolin-2-ylamino)benzenesulfonamide], for which the IC50 at PDK1 kinase is < 5 µM. The EC50 in the experiment on PC-3 cells (Homo sapiens, PC-3, PC3 cells) is < 5 µM.
Regarding `CN1CCC(CNc2ccc(-c3cccc4cnc(Nc5ccc(S(N)(=O)=O)cc5)nc34)cn2)CC1` [Compound 975, 4-(8-(6-((1-methylpiperidin-4-yl)methylamino)pyridin-3-yl)quinazolin-2-ylamino)benzenesulfonamide], the half-maximal inhibitory concentration (IC50) on PDK1 kinase is < 5 µM. The EC50 in the experiment on PC-3 cells (Homo sapiens, PC-3, PC3 cells) was < 5 µM.
With `CN(C)[C@@H]1CCN(C(=O)c2cncc(-c3cccc4cnc(Nc5ccc(S(N)(=O)=O)cc5)nc34)c2)C1` [Compound 976, (R)-4-(8-(5-(3-(dimethylamino)pyrrolidine-1-carbonyl)pyridin-3-yl)quinazolin-2-ylamino)benzenesulfonamide], at PDK1 kinase, the IC50 is < 5 µM. Also, the EC50 in the experiment with PC-3 cells (Homo sapiens, PC-3, PC3 cells) was in the range of 5 to 10 µM.
The like results for `CN1CCN(C(=O)c2cncc(-c3cccc4cnc(Nc5ccc(S(N)(=O)=O)cc5)nc34)c2)CC1` [Compound 977, 4-(8-(5-(4-methylpiperazine-1-carbonyl)pyridin-3-yl)quinazolin-2-ylamino)benzenesulfonamide] were, in that order, < 5 µM and 5 to 10 µM.
The like results for `CN(C)[C@H]1CCN(C(=O)c2cncc(-c3cccc4cnc(Nc5ccc(S(N)(=O)=O)cc5)nc34)c2)C1` [Compound 978, (S)-4-(8-(5-(3-(dimethylamino)pyrrolidine-1-carbonyl)pyridin-3-yl)quinazolin-2-ylamino)benzenesulfonamide] were, in that order, < 5 µM and 5 to 10 µM.
Regarding `NS(=O)(=O)c1ccc(Nc2ncc3cccc(-c4cncc(C(=O)NCCN5CCCC5)c4)c3n2)cc1` [Compound 979, N-(2-(pyrrolidin-1-yl)ethyl)-5-(2-(4-sulfamoylphenylamino)quinazolin-8-yl)nicotinamide], at PDK1 kinase, the IC50 was < 5 µM. Also, the EC50 in the experiment with PC-3 cells (Homo sapiens, PC-3, PC3 cells) is 5 to 10 µM.
For `CN(C)C1CCN(C(=O)c2cncc(-c3cccc4cnc(Nc5ccc(S(N)(=O)=O)cc5)nc34)c2)CC1` [Compound 980, 4-(8-(5-(4-(dimethylamino)piperidine-1-carbonyl)pyridin-3-yl)quinazolin-2-ylamino)benzenesulfonamide], the IC50 on PDK1 kinase was < 5 µM. For the same compound, the EC50 in the experiment on PC-3 cells (Homo sapiens, PC-3, PC3 cells) lay in the range of 5 to 10 µM.
In the same order, the values of `CN1CCC(NC(=O)c2cncc(-c3cccc4cnc(Nc5ccc(S(N)(=O)=O)cc5)nc34)c2)CC1` [Compound 981, N-(1-methylpiperidin-4-yl)-5-(2-(4-sulfamoylphenylamino)quinazolin-8-yl)nicotinamide] are < 5 µM and 5 to 10 µM.
Turning to `CN1CCC(CNC(=O)c2cncc(-c3cccc4cnc(Nc5ccc(S(N)(=O)=O)cc5)nc34)c2)CC1` [Compound 982, N-((1-methylpiperidin-4-yl)methyl)-5-(2-(4-sulfamoylphenylamino)quinazolin-8-yl)nicotinamide], the IC50 at PDK1 kinase was < 5 µM. The EC50 in the experiment on PC-3 cells (Homo sapiens, PC-3, PC3 cells) was 5 to 10 µM.
The like results for `NS(=O)(=O)c1ccc(Nc2ncc3cccc(-c4cncc(C(=O)N5CCNC(=O)C5)c4)c3n2)cc1` [Compound 983, 4-(8-(5-(3-oxopiperazine-1-carbonyl)pyridin-3-yl)quinazolin-2-ylamino)benzenesulfonamide] were, in that order, < 5 µM and 5 to 10 µM.
In the same order, the values of `NS(=O)(=O)c1ccc(Nc2ncc3cccc(-c4cncc(C(=O)N5CCOCC5)c4)c3n2)cc1` [Compound 984, 4-(8-(5-(morpholine-4-carbonyl)pyridin-3-yl)quinazolin-2-ylamino)benzenesulfonamide] are < 5 µM and 5 to 10 µM.
The like results for `CN1CCN(c2ccc(-c3cccc4cnc(Nc5ccc(S(N)(=O)=O)cc5)nc34)cc2)CC1` [Compound 985, 4-(8-(4-(4-methylpiperazin-1-yl)phenyl)quinazolin-2-ylamino)benzenesulfonamide] were, in that order, < 5 µM and < 5 µM.
In the case of `NS(=O)(=O)c1ccc(Nc2ncc3cccc(-c4ccc(CN5CCOCC5)cc4)c3n2)cc1` [Compound 986, 4-(8-(4-(mopholinomethyl)phenyl)quinazolin-2-ylamino)benzenesulfonamide], the IC50 at PDK1 kinase was < 5 µM. Moreover, the EC50 in the experiment with PC-3 cells (Homo sapiens, PC-3, PC3 cells) is < 5 µM.
Take `NS(=O)(=O)c1ccc(Nc2ncc3cccc(C4=CCNCC4)c3n2)cc1` [Compound 987, 4-(8-(1.2,3,6-tetrahydropyridin-4-yl)quinazolin-2-ylamino)benzenesulfonamide]: at PDK1 kinase, the half-inhibitory concentration (IC50) is < 5 µM. Besides, the EC50 in the experiment on PC-3 cells (Homo sapiens, PC-3, PC3 cells) is < 5 µM.
Turning to `CC(C)NC(=O)c1ccc(Nc2ncc3cccc(-c4ccc(NCCN5CCCC5)nc4)c3n2)cc1` [Compound 993, N-isopropyl-4-(8-(6-(2-(pyrrolidin-1-yl)ethylamino)pyridin-3-yl)quinazolin-2-ylamino)benzamide], the IC50 at PDK1 kinase was < 5 µM. The EC50 in the experiment on PC-3 cells (Homo sapiens, PC-3, PC3 cells) is < 5 µM.
Consider `Fc1ccc(Nc2ncc3cccc(-c4ccc(NCCN5CCCC5)nc4)c3n2)cc1` [Compound 994, N-(4-fluorophenyl)-8-(6-(2-(pyrrolidin-1-yl)ethylamino)pyridin-3-yl)quinazolin-2-amine], for which the IC50 on PDK1 kinase was < 5 µM. Also, in the experiment on PC-3 cells (Homo sapiens, PC-3, PC3 cells), the EC50 is < 5 µM.
In the case of `Clc1ccc(Nc2ncc3cccc(-c4ccc(NCCN5CCCC5)nc4)c3n2)cc1` [Compound 995, N-(4-chorophenyl)-8-(6-(2-(pyrrolidin-1-yl)ethylamino)pyridin-3-yl)quinazolin-2-amine], the IC50 at PDK1 kinase is < 5 µM. For the same compound, the EC50 in the experiment with PC-3 cells (PC3 cells) was < 5 µM.
As for `c1cc(-c2ccc(NCCN3CCCC3)nc2)c2nc(Nc3ccc(N4CCOCC4)cc3)ncc2c1` [Compound 996, N-(4-morpholinophenyl)-8-(6-(2-(pyrrolidin-1-yl)ethylamino)pyridin-3-yl)quinazolin-2-amine], at PDK1 kinase, the IC50 was < 5 µM. Besides, the EC50 in the experiment with PC-3 cells (Homo sapiens, PC-3, PC3 cells) is < 5 µM.
As to `CNS(=O)(=O)Cc1ccc(Nc2ncc3cccc(-c4ccc(NCCN5CCCC5)nc4)c3n2)cc1` [Compound 998, N-methyl-1-(4-(8-(6-(2-(pyrrolidin-1-yl)ethylamino)pyridin-3-yl)quinazolin-2-ylamino)phenyl)methanesulfonamide], the IC50 on PDK1 kinase is < 5 µM. In the experiment with PC-3 cells (Homo sapiens, PC-3, PC3 cells), the EC50 was < 5 µM.
Consider `CN1CCN(c2ccc(-c3cccc4cnc(Nc5ccc(F)cc5)nc34)cn2)CC1` [Compound 999, N-(4-fluorophenyl)-8-(6-(4-methylpiperazin-1-yl)pyridin-3-yl)quinazolin-2-amine], for which the IC50 at PDK1 kinase was < 5 µM. Also, the EC50 in the experiment on PC-3 cells (Homo sapiens, PC-3, PC3 cells) was < 5 µM.
For `O=c1[nH]c2ccc(Nc3ncc4cccc(-c5ccc(NCCN6CCCC6)nc5)c4n3)cc2[nH]1` [Compound 1000, 5-(8-(6-(2-(pyrrolidin-1-yl)ethylamino)pyridin-3-yl)quinazolin-2-ylamino)-1H-benzo[d]imidazol-2(3H)-one], the IC50 at PDK1 kinase is < 5 µM. Besides, in the experiment with PC-3 cells (Homo sapiens, PC-3, PC3 cells), the EC50 was < 5 µM.
Regarding `Cc1ccc(Nc2ncc3cccc(-c4ccc(NCCN5CCCC5)nc4)c3n2)cc1NS(C)(=O)=O` [Compound 1001, N-(2-methyl-5-(8-(6-(2-(pyrrolidin-1-yl)ethylamino)pyridin-3-yl)quinazolin-2-ylamino)phenyl)methanesulfonamide], the IC50 on PDK1 kinase was < 5 µM. Besides, the EC50 in the experiment with PC-3 cells (Homo sapiens, PC-3, PC3 cells) is < 5 µM.
Consider `CC(C)NS(=O)(=O)c1ccc(Nc2ncc3cccc(-c4ccc(NCCN5CCCC5)nc4)c3n2)cc1` [Compound 1016, N-isopropyl-4-(8-(6-(2-(pyrrolidin-1-yl)ethylamino)pyridin-3-yl)quinazolin-2-ylamino)benzenesulfonamide], for which the 50% inhibitory concentration (IC50) on PDK1 kinase was < 5 µM. In the experiment with PC-3 cells (Homo sapiens, PC-3, PC3 cells), the EC50 was < 5 µM.
Turning to `Fc1ccc(Nc2ncc3cccc(-c4ccc(NCCN5CCCC5)nc4)c3n2)c(F)c1` [Compound 1017, N-(2,4-difluorophenyl)-8-(6-(2-(pyrrolidin-1-yl)ethylamino)pyridin-3-yl)quinazolin-2-amine], the IC50 on PDK1 kinase was < 5 µM. Also, the EC50 with PC-3 cells (Homo sapiens, PC-3, PC3 cells) is < 5 µM.
Turning to `Fc1ccc(Nc2ncc3cccc(-c4ccc(NCCN5CCCC5)nc4)c3n2)cc1F` [Compound 1018, N-(3,4-difluorophenyl)-8-(6-(2-(pyrrolidin-1-yl)ethylamino)pyridin-3-yl)quinazolin-2-amine], the IC50 at PDK1 kinase was < 5 µM. The EC50 in the experiment on PC-3 cells (Homo sapiens, PC-3, PC3 cells) is < 5 µM.
Consider `OCCc1ccc(Nc2ncc3cccc(-c4ccc(NCCN5CCCC5)nc4)c3n2)cc1` [Compound 1019, 2-(4-(8-(6-(2-(pyrrolidin-1-yl)elhylamino)pyridin-3-yl)quinazolin-2-ylamino)phenyl)ethanol], for which the half-maximal inhibitory concentration (IC50) at PDK1 kinase was < 5 µM. Moreover, the EC50 in the experiment with PC-3 cells (Homo sapiens, PC-3, PC3 cells) is < 5 µM.
On to `Fc1cccc(Nc2ncc3cccc(-c4ccc(NCCN5CCCC5)nc4)c3n2)c1` [Compound 1020, N-(3-fluorophenyl)-8-(6-(2-(pyrrolidin-1-yl)ethylamino)pyridin-3-yl)quinazolin-2-amine], for which the IC50 on PDK1 kinase was < 5 µM. The EC50 with PC-3 cells (Homo sapiens, PC-3, PC3 cells) is < 5 µM.
